The target of this test is T1, sestrin-AMPK interaction (Homo sapiens, UniProt P58004).
T1 construct: endogenous in cells; host or cells: primary CD4+ T cells from PBMCs of healthy donors
T1 sequence (P58004 1-480): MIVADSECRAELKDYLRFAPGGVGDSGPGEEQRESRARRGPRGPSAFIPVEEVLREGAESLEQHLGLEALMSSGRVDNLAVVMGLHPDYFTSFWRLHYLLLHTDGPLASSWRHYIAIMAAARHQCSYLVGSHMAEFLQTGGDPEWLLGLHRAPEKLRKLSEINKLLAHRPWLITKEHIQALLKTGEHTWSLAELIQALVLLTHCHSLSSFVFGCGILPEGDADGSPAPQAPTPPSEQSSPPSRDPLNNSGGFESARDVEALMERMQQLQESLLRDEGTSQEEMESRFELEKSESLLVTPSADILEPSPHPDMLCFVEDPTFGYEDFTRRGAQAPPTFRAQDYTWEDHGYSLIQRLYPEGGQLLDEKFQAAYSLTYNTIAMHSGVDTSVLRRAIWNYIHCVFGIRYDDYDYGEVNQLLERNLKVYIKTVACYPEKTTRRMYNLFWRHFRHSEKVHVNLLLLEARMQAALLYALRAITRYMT
Briefly: ELISA coupled to sestrin 2 immunoprecipitation. In kind it is cell-based. How it is done: FIG. 6 illustrates sMAC disruption by DOS46L. (A) CD4+ T cells were purified from PBMCs from healthy donors and treated with DOS46L (10 uM) for the indicated time points. The binding of AMPK to Sestrin 2 was quantified against the total level of Sestrin 2 immunoprecipitated and detected by ELISA. IgG immunoprecipitates served as background control. (B) Cells were pre-treated with proteasome-inhibitor MG-132 (10 uM) for 30 min and subsequently treated with DOS46L (10 uM) for 4 hours. Cells were harvested for immunoblot analysis or proceeded to immunoprecipitation. Levels of Sestrin 2, p38, and AMPK were evaluated by immunoblotting. H3 was used as a loading control. Representative images of 3 experiments are shown. (C) Immunoblot levels of Ubiquitin, Sestrin 2 and Histone 3 in Sestrin 2 immunoprecipitates and their lysates were analysed. Representative images are shown (top). The mean values (bottom) of ubiquitinated proteins in Sestrin 2 immunoprecipitates are shown. Results are presented as a mean±SD of 4 repeated experiments. Student's T-test was used to analyse the data. **p<0.01
• 1. Cell pellet was lysed with 100 μL of denaturing lysis buffer • 2. Then mixed well by vortexing vigorously for 2-3 sec at maximum speed. • 3. Samples were then boiled at 95° C. for 5 min. • 4. Samples were then diluted 900 μl of non-denaturing lysis buffer and mixed gently. • 5. […]
On the technique in general: An ELISA detects its analyte on a solid surface through an enzyme-linked reagent.

Data on 1 compound can be found in US20250066423A1, “SESTRIN-MAPK COMPLEX INHIBITORS” (Sentcell Ltd, priority 2021, published 2025).

Peptide text beside a SMILES is read from it.

Regarding `CC[C@H](C)[C@@H]1NC(=O)[C@H](Cc2ccccc2)NC(=O)[C@H](C)NC(=O)[C@H](C(C)C)NC(=O)[C@@H]2CCCN2C1=O` [DOS46L] (cyclo(AFIPV)), the “binding of AMPK to Sestrin 2” value (CD4+ T cells, 10 uM, 1 or 2 hours of treatment) is recorded as “decreased”. In addition, the sestrin-AMPK interaction result (compound added directly to the sestrin immunoprecipitates in vitro) is reported as “disrupted”.
